{"source": "patent US20060174366A1", "about": "“Use of ahas mutant genes as selection marker in potato transformation” (priority 2002, published 2006)", "key": {"[1]": {"test_system": "Potato leaf segments of varieties Prevalent, Producent, Karnico and Desiree", "test": "Investigation of selection pressure: lethality of Imazamox concentrations on shoot regeneration from untransformed leaf segments", "assay_type": "cell-based, Solanum tuberosum", "method": "Potato leaf segments from in vitro propagated plants of four different potato varieties Prevalent, Producent, Karnico and Desiree were tested for natural tolerance on different concentrations of the imidazolinone herbicide Imazamox. It is important to choose a selection concentration at which the potato leaf tissue is viable long enough to regenerate shoots but have a high enough concentration to prevent the regeneration of untransformed shoots. Doses 0.1, 0.5, 1, 5, 10, 20, 30 and 50 μM Imazamox were tested.\nFully expended potato leaves are diagonally cut in 2 pieces and precultivated on MC-plates for 2 to 3 days at 23 to 24° C., see table 1.\nThe leaf tissues are transferred on MS300 medium for additional 2 days and cultivated under modest light at 23 to 24° C. simulating a co-cultivation step. Subsequently the leaf segments are moved to MS400 plates containing 400 mg/l Claforan. Claforan is added in order to suppress growth of Agrobacterium tumfaciens. Therefore the regeneration of shoots on different concentrations of Imazamox need to be monitored in presence of Claforan. Selection is taking place within 4 to 5 days when the explants are moved to MS400 medium supplemented with 400mg/l Claforan and Imazamox at above concentrations.\nThe explants are transferred to fresh selection medium every fortnight.\nLeaf tissues were tested for the use of the AHAS resistance gene contained in SEQ ID No. 1 and for the selection of transgenic potato plant cells as described above. Four different potato cultivars Prevalent, Producent, Karnico and Desiree were cultivated on different concentrations of Imazamox, an imidazolinones type herbicides. It is essential to use the proper concentration for selection to yield an acceptable number of shoots per explant without high escape rate. The lethality of various Imazamox concentrations on regeneration was evaluated.\nLethal dose for regeneration was detected within 0.1 to 1 μM ranges of concentrations. Slight variation in lethality was detected between varieties. […]"}, "[2]": {"test_system": "in vitro potato leaf segments", "test": "Effect of Imazamox on plant cell growth in tissue culture", "assay_type": "cell-based, Solanum tuberosum", "description": "Leaf segments are the explants of choice used in Agrobacterium mediated potato transformation. Transgenic plants are regenerated via direct or indirect organogenesis under selective conditions. Cytokinines as growth hormones are mainly involved in provoking cell division and adventitious bud formation in in vitro potato leaf segments. […] This phenomenon classifies Imazamox as a unique selection agent that is combining both lethality for non-transgenic cells and improved growth for transgenic cells."}}}
{"smiles": "COCc1cnc(C2=NC(C)(C(C)C)C(=O)N2)c(C(=O)O)c1", "note": "(racemic) [Imazamox, (RS)-2-(4-isopropyl-4-methyl-5-oxo-2-imidazolin-2-yl)-5-methoxymethylnicotinic acid]", "values": [{"measurement": "lethality in regeneration", "setting": "[1]; 0.3 μM Imazamox", "value": 80, "unit": "%"}, {"measurement": "lethality in regeneration", "setting": "[1]; 0.5 μM Imazamox", "value": 100, "unit": "%"}, {"measurement": "Regeneration", "setting": "[1]; 0.5 μM Imazamox included in the medium", "value": "No regeneration"}, {"measurement": "effect in tissue culture", "setting": "[2]; applied in low concentrations", "value": "cytokinine-like effect"}, {"measurement": "effect in tissue culture", "setting": "[2]; at higher concentrations", "value": "acting as an herbicide"}]}
